Laboratory results from ChEMBL document CHEMBL4346757, “Synthesis and biological evaluation of 7-methoxy-1-(3,4,5-trimethoxyphenyl)-4,5-dihydro-2H-benzo[e]indazoles as new colchicine site inhibitors” (Bioorg Med Chem Lett, 2019).

Columns and labels:
K562 [1] = test: Growth inhibition of human K562 cells assessed as cell growth at 10 uM after 48 hrs by SRB assay relative to control; format: functional; conditions: K562, 48 h, read-out: Activity
SNB-19 = test: Growth inhibition of human SNB19 cells assessed as cell growth at 10 uM after 48 hrs by SRB assay relative to control; format: functional; conditions: SNB-19, 48 h, read-out: Activity
HCT-116 = test: Growth inhibition of human HCT116 cells assessed as cell growth at 0.01 uM after 48 hrs by SRB assay relative to control; format: functional; conditions: HCT-116, 48 h, read-out: Activity
NCI/ADR-RES [2] = test: Growth inhibition of human NCI-ADR-RES cells assessed as cell growth at 0.1 uM after 48 hrs by SRB assay relative to control; format: functional; conditions: read-out: Activity
OVCAR-4 [3] = test: Growth inhibition of human OVCAR4 cells assessed as cell growth at 1 uM after 48 hrs by SRB assay relative to control; format: functional; conditions: OVCAR-4, 48 h, read-out: Activity
OVCAR-3 [4] = test: Growth inhibition of human OVCAR3 cells assessed as cell growth at 0.01 uM after 48 hrs by SRB assay relative to control; format: functional; conditions: OVCAR-3, 48 h, read-out: Activity
OVCAR-3 [5] = test: Growth inhibition of human OVCAR3 cells assessed as cell growth at 10 uM after 48 hrs by SRB assay relative to control; format: functional; conditions: OVCAR-3, 48 h, read-out: Activity
U-251 [6] = test: Growth inhibition of human U251 cells assessed as cell growth at 10 uM after 48 hrs by SRB assay relative to control; format: functional; conditions: U-251, 48 h, read-out: Activity
MDA-MB-231 = test: Growth inhibition of human MDA-MB-231/ATCC cells assessed as cell growth at 10 uM after 48 hrs by SRB assay relative to control; format: functional; conditions: MDA-MB-231, 48 h, read-out: Activity
UACC-257 [7] = test: Growth inhibition of human UACC257 cells assessed as cell growth at 100 uM after 48 hrs by SRB assay relative to control; format: functional; conditions: UACC-257, 48 h, read-out: Activity
SK-MEL-2 = test: Cytotoxicity against human SK-MEL-2 cells assessed as growth inhibition after 48 hrs by SRB assay; format: functional; conditions: SK-MEL-2, 48 h
SF-295 = test: Growth inhibition of human SF295 cells assessed as cell growth at 100 uM after 48 hrs by SRB assay relative to control; format: functional; conditions: SF-295, 48 h, read-out: Activity
HOP-62 = test: Growth inhibition of human HOP62 cells assessed as cell growth at 1 uM after 48 hrs by SRB assay relative to control; format: functional; conditions: HOP-62, 48 h, read-out: Activity
HCC 2998 = test: Growth inhibition of human HCC2998 cells assessed as cell growth at 0.1 uM after 48 hrs by SRB assay relative to control; format: functional; conditions: HCC 2998, 48 h, read-out: Activity
OVCAR-4 [8] = test: Growth inhibition of human OVCAR4 cells assessed as cell growth at 0.01 uM after 48 hrs by SRB assay relative to control; format: functional; conditions: OVCAR-4, 48 h, read-out: Activity
SN12C = test: Growth inhibition of human SN12C cells assessed as cell growth at 10 uM after 48 hrs by SRB assay relative to control; format: functional; conditions: read-out: Activity
MOLT-4 = test: Growth inhibition of human MOLT4 cells assessed as cell growth at 100 uM after 48 hrs by SRB assay relative to control; format: functional; conditions: MOLT-4, 48 h, read-out: Activity
U-251 [9] = test: Growth inhibition of human U251 cells assessed as cell growth at 0.1 uM after 48 hrs by SRB assay relative to control; format: functional; conditions: U-251, 48 h, read-out: Activity
Tubulin = Tubulin (Bos taurus, UniProt Q6B856+Q862L2+Q862F3); test: Inhibition of bovine brain tubulin polymerization measured every 1 min for 60 mins by turbidimetry based microplate reader analysis
NCI-H522 = test: Growth inhibition of human NCI-H522 cells assessed as cell growth at 1 uM after 48 hrs by SRB assay relative to control; format: functional; conditions: NCI-H522, 48 h, read-out: Activity
SK-MEL-28 = test: Growth inhibition of human SK-MEL-28 cells assessed as cell growth at 0.1 uM after 48 hrs by SRB assay relative to control; format: functional; conditions: SK-MEL-28, 48 h, read-out: Activity
SNB-75 = test: Cytotoxicity against human SNB75 cells assessed as growth inhibition after 48 hrs by SRB assay; format: functional; conditions: SNB-75, 48 h
BT-549 = test: Growth inhibition of human BT549 cells assessed as cell growth at 0.01 uM after 48 hrs by SRB assay relative to control; format: functional; conditions: BT-549, 48 h, read-out: Activity
MDA-MB-435 = test: Growth inhibition of human MDA-MB-435 cells assessed as cell growth at 100 uM after 48 hrs by SRB assay relative to control; format: functional; conditions: MDA-MB-435, 48 h, read-out: Activity
UACC-62 = test: Growth inhibition of human UACC62 cells assessed as cell growth at 1 uM after 48 hrs by SRB assay relative to control; format: functional; conditions: UACC-62, 48 h, read-out: Activity
LOX IMVI = test: Growth inhibition of human LOXIMVI cells assessed as cell growth at 10 uM after 48 hrs by SRB assay relative to control; format: functional; conditions: read-out: Activity
NCI/ADR-RES [10] = test: Cytotoxicity against human NCI-ADR-RES cells assessed as growth inhibition after 48 hrs by SRB assay; format: functional
MCF7 = test: Growth inhibition of human MCF7 cells assessed as cell growth at 1 uM after 48 hrs by SRB assay relative to control; format: functional; conditions: MCF7, 48 h, read-out: Activity
UO-31 = test: Growth inhibition of human UO31 cells assessed as cell growth at 100 uM after 48 hrs by SRB assay relative to control; format: functional; conditions: UO-31, 48 h, read-out: Activity
UACC-257 [11] = test: Growth inhibition of human UACC257 cells assessed as cell growth at 0.1 uM after 48 hrs by SRB assay relative to control; format: functional; conditions: UACC-257, 48 h, read-out: Activity
DU-145 = test: Cytotoxicity against human DU145 cells assessed as growth inhibition after 48 hrs by SRB assay; format: functional; conditions: DU-145, 48 h
K562 [12] = test: Growth inhibition of human K562 cells assessed as cell growth at 0.1 uM after 48 hrs by SRB assay relative to control; format: functional; conditions: K562, 48 h, read-out: Activity
[13] = read-out: LC50 (the source's name)
[14] = read-out: pLC50 (the source's name) (converted)

## COc1ccc2c(c1)CCc1n[nH]c(-c3cc(OC)c(OC)c(OC)c3)c1-2
K562 [1]
  growth at 10 µM: 17%
SNB-19
  growth at 10 µM: 24%
HCT-116
  growth at 0.01 µM: 7%
NCI/ADR-RES [2]
  growth at 0.1 µM: -21%
OVCAR-4 [3]
  growth at 1 µM: 40%
OVCAR-3 [4]
  growth at 0.01 µM: 14%
OVCAR-3 [5]
  growth at 10 µM: 12%
U-251 [6]
  growth at 10 µM: 5%
MDA-MB-231
  growth at 10 µM: 33%
UACC-257 [7]
  growth at 100 µM: -49%
SK-MEL-2; read-out: GI50
  GI50: < 0.01 µM
SK-MEL-2; read-out: LC50
  LC50: 98.7 µM
SK-MEL-2; read-out: TGI
  TGI: 26.8 µM
SK-MEL-2; read-out: pGI50 (converted)
  GI50: < 0.01 µM
SK-MEL-2; read-out: pLC50 (converted)
  LC50: 97.7 µM
SK-MEL-2; read-out: pTGI (converted)
  TGI: 26.9 µM
SF-295
  growth at 100 µM: -61%
HOP-62
  growth at 1 µM: 6%
HCC 2998
  growth at 0.1 µM: 11%
OVCAR-4 [8]
  growth at 0.01 µM: 41%
SN12C
  growth at 10 µM: 24%
MOLT-4
  growth at 100 µM: 6%
U-251 [9]
  growth at 0.1 µM: 10%
Tubulin
  IC50: 3.4 µM
NCI-H522
  growth at 1 µM: -16%
SK-MEL-28
  growth at 0.1 µM: 60%
SNB-75; read-out: GI50
  GI50: < 0.01 µM
SNB-75; [13]
  CC50: > 100 µM
SNB-75; read-out: TGI
  TGI: 26.1 µM
SNB-75; read-out: pGI50 (converted)
  GI50: < 0.01 µM
SNB-75; [14]
  CC50: > 100 µM
SNB-75; read-out: pTGI (converted)
  TGI: 26.3 µM
BT-549
  growth at 0.01 µM: 4%
MDA-MB-435
  growth at 100 µM: -64%
UACC-62
  growth at 1 µM: 36%
LOX IMVI
  growth at 10 µM: 7%
NCI/ADR-RES [10]; read-out: GI50
  GI50: < 0.01 µM
NCI/ADR-RES [10]; read-out: LC50
  LC50: > 100 µM
NCI/ADR-RES [10]; read-out: TGI
  TGI: < 0.01 µM
NCI/ADR-RES [10]; read-out: pGI50 (converted)
  GI50: < 0.01 µM
NCI/ADR-RES [10]; read-out: pLC50 (converted)
  LC50: > 100 µM
NCI/ADR-RES [10]; read-out: pTGI
  TGI: < 0.01 µM
MCF7
  growth at 1 µM: 12%
UO-31
  growth at 100 µM: -43%
UACC-257 [11]
  growth at 0.1 µM: 51%
DU-145; read-out: GI50
  GI50: < 0.01 µM
DU-145; [13]
  CC50: > 100 µM
DU-145; read-out: TGI
  TGI: > 100 µM
DU-145; read-out: pGI50 (converted)
  GI50: < 0.01 µM
DU-145; [14]
  CC50: > 100 µM
DU-145; read-out: pTGI
  TGI: > 100 µM
K562 [12]
  growth at 0.1 µM: 19%
